The values below come from ChEMBL document CHEMBL1136816, “Synthesis and evaluation of ether and halogenated derivatives of mannopeptimycin glycopeptide antibiotics” (2003).

Values after ≈ are worked out from the molar mass of the structure shown.

Format in all cases: functional
In test [1] the test system is Streptococcus sp. Put plainly: In vitro minimum inhibitory concentration against Streptococcus species; </=0.06-0.25.
The subject of test [2] is Enterococcus sp. Put plainly: In vitro minimum inhibitory concentration against Enterococcus species; 2-4.
The subject of test [3] is Staphylococcus aureus. In words: In vitro minimum inhibitory concentration against Staphylococcus aureus; 2-4.
In test [4] the test system is Enterococcus sp. Put plainly: In vitro minimum inhibitory concentration against Enterococcus species; 1-2.
Test [5] has as its system Streptococcus sp. Put plainly: In vitro minimum inhibitory concentration against Streptococcus species.
For test [6], the system named is Staphylococcus aureus. In words: In vitro minimum inhibitory concentration against Staphylococcus aureus; 0.25-1.
Test [7] relates to Enterococcus sp. Put plainly: In vitro minimum inhibitory concentration against Enterococcus species; 1-4.
Test [8] has as its system Staphylococcus aureus. Put plainly: In vitro minimum inhibitory concentration against Staphylococcus aureus; 1-2.
Test [9] has as its system Streptococcus sp. Put plainly: In vitro minimum inhibitory concentration against Streptococcus species; </=0.06-5.
Test [10] deals with Enterococcus sp. In words: In vitro minimum inhibitory concentration against Enterococcus species 2-8.
The test system of test [11] is Streptococcus sp. Put plainly: In vitro minimum inhibitory concentration against Streptococcus species; 0.5-4.
In test [12] the test system is Enterococcus sp. In words: In vitro minimum inhibitory concentration against Enterococcus species; 4-64.
The test system of test [13] is Staphylococcus aureus. Put plainly: In vitro minimum inhibitory concentration against Staphylococcus aureus; 1-8.
Test [14] deals with Staphylococcus aureus. Put plainly: In vitro minimum inhibitory concentration against Staphylococcus aureus; 0.5->64.
The test system of test [15] is Enterococcus sp. Put plainly: In vitro minimum inhibitory concentration against Enterococcus species; 0.25->64.
Test [16] relates to Streptococcus sp. In words: In vitro minimum inhibitory concentration against Streptococcus species; </=0.06-1.

For the compound `COc1ccc(COC[C@H]2O[C@H](O[C@H]3[C@H](O)[C@H](O)[C@@H](Oc4ccc(C[C@H]5NC(=O)[C@H]([C@@H](C)c6ccccc6)NC(=O)CNC(=O)[C@H](CO)NC(=O)[C@@H]([C@@H](O)[C@@H]6CN=C(N)N6[C@H]6O[C@H](CO)[C@@H](O)[C@H](O)[C@@H]6O)NC(=O)[C@H]([C@@H](O)[C@@H]6CN=C(N)N6)NC5=O)cc4)O[C@@H]3CO)[C@@H](O)[C@@H](O)[C@@H]2O)cc1OCc1ccccc1`, the MIC – broadly, the smallest concentration in the dilution series that meets the test's criterion for growth inhibition – in the test on Streptococcus sp. [1] was at most 0.06 µg/mL; against Enterococcus sp. [2], 2 µg/mL (≈ 1.31 µM); against Staphylococcus aureus [3] it was 2 µg/mL (≈ 1.31 µM).

Consider `COc1ccc2cc(CO[C@H]3[C@H](O)[C@H](O)[C@@H](O[C@H]4[C@H](O)[C@H](O)[C@@H](Oc5ccc(C[C@H]6NC(=O)[C@H]([C@@H](C)c7ccccc7)NC(=O)CNC(=O)[C@H](CO)NC(=O)[C@@H]([C@@H](O)[C@@H]7CN=C(N)N7[C@H]7O[C@H](CO)[C@@H](O)[C@H](O)[C@@H]7O)NC(=O)[C@H]([C@@H](O)[C@@H]7CN=C(N)N7)NC6=O)cc5)O[C@@H]4CO)O[C@@H]3CO)ccc2c1`, for which the MIC in the test on Enterococcus sp. [4] was 1 µg/mL (≈ 0.682 µM); against Streptococcus sp. [5], at most 0.06 µg/mL; in the test with Staphylococcus aureus [6], 0.25 µg/mL (≈ 0.171 µM).

With `C[C@@H](c1ccccc1)[C@@H]1NC(=O)CNC(=O)[C@H](CO)NC(=O)[C@@H]([C@@H](O)[C@@H]2CN=C(N)N2[C@H]2O[C@H](CO)[C@@H](O)[C@H](O)[C@@H]2O)NC(=O)[C@H]([C@@H](O)[C@@H]2CN=C(N)N2)NC(=O)[C@@H](Cc2ccc(O[C@H]3O[C@H](CO)[C@@H](O[C@H]4O[C@H](COCc5ccc(OCc6ccccc6)cc5)[C@@H](O)[C@H](O)[C@@H]4O)[C@H](O)[C@@H]3O)cc2)NC1=O`, the values for the MIC in the test on Enterococcus sp. [7], against Streptococcus sp. [5] and in the test with Staphylococcus aureus [8] were 1 µg/mL (≈ 0.67 µM), at most 0.06 µg/mL and 1 µg/mL (≈ 0.67 µM), respectively.

Turning to `COc1ccc2cc(COC[C@H]3O[C@H](O[C@H]4[C@H](O)[C@H](O)[C@@H](Oc5ccc(C[C@H]6NC(=O)[C@H]([C@@H](C)c7ccccc7)NC(=O)CNC(=O)[C@H](CO)NC(=O)C(C(O)[C@@H]7CN=C(N)N7[C@H]7O[C@H](CO)[C@@H](O)[C@H](O)[C@@H]7O)NC(=O)[C@H]([C@@H](O)[C@@H]7CN=C(N)N7)NC6=O)cc5)O[C@@H]4CO)[C@@H](O)[C@@H](O)[C@@H]3O)ccc2c1` (stereo partly drawn), the minimum inhibitory concentration (MIC) was at most 0.06 µg/mL with Streptococcus sp. [9], 2 µg/mL (≈ 1.36 µM) against Enterococcus sp. [10] and 1 µg/mL (≈ 0.682 µM) in the test with Staphylococcus aureus [8].

As to `C[C@@H](c1ccccc1)[C@@H]1NC(=O)CNC(=O)[C@H](CO)NC(=O)[C@@H]([C@@H](O)[C@@H]2CN=C(N)N2[C@H]2O[C@H](CO)[C@@H](O)[C@H](O)[C@@H]2O)NC(=O)[C@H]([C@@H](O)[C@@H]2CN=C(N)N2)NC(=O)[C@@H](Cc2ccc(O[C@H]3O[C@H](CO)[C@@H](O[C@H]4O[C@H](COCc5cccs5)[C@@H](O)[C@H](O)[C@@H]4O)[C@H](O)[C@@H]3O)cc2)NC1=O`, the results for the minimum inhibitory concentration (MIC) against Streptococcus sp. [11], in the test on Enterococcus sp. [12] and with Staphylococcus aureus [13] were 0.5 µg/mL (≈ 0.359 µM), 4 µg/mL (≈ 2.87 µM) and 1 µg/mL (≈ 0.719 µM), respectively.

In the case of `CCN1CCN(C(=O)N[C@@H](C(=O)N[C@@H]2C(=O)N3[C@@H]2SC(C)(C)[C@@H]3C(=O)O)c2ccccc2)C(=O)C1=O` [PIPERACILLIN], the MIC against Staphylococcus aureus [14] was 0.5 µg/mL (≈ 0.966 µM); in the test with Enterococcus sp. [15], 0.25 µg/mL (≈ 0.483 µM); with Streptococcus sp. [16], at most 0.06 µg/mL.
